Data reported in paper PMC3694096, “Development of Novel In Vivo Chemical Probes to Address CNS Protein Kinase Involvement in Synaptic Dysfunction” (PLoS ONE, 2013).
Values after ≈ are worked out from the molar mass of the structure shown. Like-named read-outs stand apart in the source and are kept apart here.

Legend:
PRK2 = molecular target: T1, PRK2 (Homo sapiens, UniProt Q16513); assay: Kinome profiler screen; type: biochemical; conditions: at 20,000 nM inhibitor; kinase activity remaining
T1 construct: purchased Millipore KinaseProfiler

PDGFRα(D842V) = molecular target: T2, PDGFRα(D842V) (Homo sapiens, UniProt P16234, D842V); assay: Kinome profiler screen; type: biochemical; conditions: at 20,000 nM inhibitor; kinase activity remaining
T2 construct: purchased Millipore KinaseProfiler

cKit(V654A) = molecular target: T3, cKit(V654A) (Homo sapiens, UniProt P10721, V654A); assay: Kinome profiler screen; type: biochemical; conditions: at 20,000 nM inhibitor; kinase activity remaining
T3 construct: purchased Millipore KinaseProfiler

Tie2 = molecular target: T4, Tie2 (Homo sapiens, UniProt Q02763); assay: Kinome profiler screen; type: biochemical; conditions: at 20,000 nM inhibitor; kinase activity remaining
T4 construct: purchased Millipore KinaseProfiler

PI3 Kinase (p120γ) = molecular target: T5, PI3 Kinase (p120γ) (Homo sapiens, UniProt P48736); assay: Kinome profiler screen; type: biochemical; conditions: at 20,000 nM inhibitor; kinase activity remaining
T5 construct: purchased Millipore KinaseProfiler

Tie2(R849W) = molecular target: T6, Tie2(R849W) (Homo sapiens, UniProt Q02763, R849W); assay: Kinome profiler screen; type: biochemical; conditions: at 20,000 nM inhibitor; kinase activity remaining
T6 construct: purchased Millipore KinaseProfiler

MLK1 = molecular target: T7, MLK1 (Homo sapiens, UniProt P80192); assay: Kinome profiler screen; type: biochemical; conditions: at 20,000 nM inhibitor; kinase activity remaining
T7 construct: purchased Millipore KinaseProfiler

PI3 Kinase (p110β/p85α) = molecular target: T8, PI3 Kinase (p110β/p85α) (Homo sapiens, UniProt P42338); assay: Kinome profiler screen; type: biochemical; conditions: at 20,000 nM inhibitor; kinase activity remaining
T8 construct: purchased Millipore KinaseProfiler

Abl (Q252H) = molecular target: T9, Abl (Q252H) (Homo sapiens, UniProt P00519, Q252H); assay: Kinome profiler screen; type: biochemical; conditions: at 20,000 nM inhibitor; kinase activity remaining
T9 construct: purchased Millipore KinaseProfiler

CHK2(I157T) = molecular target: T10, CHK2(I157T) (Homo sapiens, UniProt O96017, I157T); assay: Kinome profiler screen; type: biochemical; conditions: at 20,000 nM inhibitor; kinase activity remaining
T10 construct: purchased Millipore KinaseProfiler

Aqueous solubility = type: physicochemical; conditions: for solubility at 24 h: 37 °C, water, thermodynamic from solid
Description: (§1) Aqueous solubility (logS) and chemical stability were determined as previously described. Briefly, solutions for aqueous solubility (log S) determination were made by gravimetric methods using a Sartorius AG (Germany) BP 211 D analytical balance. Dry borosilicate capillary tubes (Büchi, Switzerland) were weighed and various amounts of compound (ranging from 1.2–1.5 mg) or the hydrochloride hydrate form (ranging from 10–20 mg) were added to the tared tubes, then water added to create solutions ranging in concentrations from […]. Tubes containing the samples were mixed to ensure wetting and incubated at 37°C for 24 h. Aliquots were collected from each tube, centrifuged at 12,000 g-min, and analyzed by HPLC. Concentrations were calculated using area under the peak (260 nm) at the appropriate retention time relative to a standard curve obtained from serial dilutions of each purified compound. […]. The co-solvent was methanol, experimental pH range was 1.7–10.0, temperature was 22±2°C, ionic strength was 0.15 M KCl. Five titrations were used to calculate the pKa using the Yasuda-Shedlovsky technique. […].

GSK3β = molecular target: T11, GSK3β (Homo sapiens, UniProt P49841); assay: Kinome profiler screen; type: biochemical; conditions: at 20,000 nM inhibitor; kinase activity remaining
T11 construct: purchased Millipore KinaseProfiler

PKCζ = molecular target: T12, PKCζ (Homo sapiens, UniProt Q05513); assay: Kinome profiler screen; type: biochemical; conditions: at 20,000 nM inhibitor; kinase activity remaining
T12 construct: purchased Millipore KinaseProfiler

PASK = molecular target: T13, PASK (Homo sapiens, UniProt Q96RG2); assay: Kinome profiler screen; type: biochemical; conditions: at 20,000 nM inhibitor; kinase activity remaining
T13 construct: purchased Millipore KinaseProfiler

Lyn = molecular target: T14, Lyn (Homo sapiens, UniProt P07948); assay: Kinome profiler screen; type: biochemical; conditions: at 20,000 nM inhibitor; kinase activity remaining
T14 construct: purchased Millipore KinaseProfiler

Src(T341M) = molecular target: T15, Src(T341M) (Homo sapiens, UniProt P12931, T341M); assay: Kinome profiler screen; type: biochemical; conditions: at 20,000 nM inhibitor; kinase activity remaining
T15 construct: purchased Millipore KinaseProfiler

ACK1 = molecular target: T16, ACK1 (Homo sapiens, UniProt Q07912); assay: Kinome profiler screen; type: biochemical; conditions: at 20,000 nM inhibitor; kinase activity remaining
T16 construct: purchased Millipore KinaseProfiler

MAPK2(m) = molecular target: T17, MAPK2(m) (Mus musculus, UniProt P63085); assay: Kinome profiler screen; type: biochemical; conditions: at 20,000 nM inhibitor; kinase activity remaining
T17 construct: purchased Millipore KinaseProfiler

CDK1/cyclinB = molecular target: T18, CDK1/cyclinB (Homo sapiens, UniProt P06493); assay: Kinome profiler screen; type: biochemical; conditions: at 20,000 nM inhibitor; kinase activity remaining
T18 construct: purchased Millipore KinaseProfiler

BrSK1 = molecular target: T19, BrSK1 (Homo sapiens, UniProt Q8TDC3); assay: Kinome profiler screen; type: biochemical
T19 construct: purchased Millipore KinaseProfiler

IRAK4 = molecular target: T20, IRAK4 (Homo sapiens, UniProt Q9NWZ3); assay: Kinome profiler screen; type: biochemical; conditions: at 20,000 nM inhibitor; kinase activity remaining
T20 construct: purchased Millipore KinaseProfiler

CDK6/cyclinD3 = molecular target: T21, CDK6/cyclinD3 (Homo sapiens, UniProt Q00534); assay: Kinome profiler screen; type: biochemical; conditions: at 20,000 nM inhibitor; kinase activity remaining
T21 construct: purchased Millipore KinaseProfiler

DRAK1 = molecular target: T22, DRAK1 (Homo sapiens, UniProt Q9UEE5); assay: Kinome profiler screen; type: biochemical; conditions: at 20,000 nM inhibitor; kinase activity remaining
T22 construct: purchased Millipore KinaseProfiler

exploratory behavior = assay: Open-field test; type: in vivo, C57BL/6J mice; conditions: time in and entries into center compartment; control test
PKBγ = molecular target: T23, PKBγ (Homo sapiens, UniProt Q9Y243); assay: Kinome profiler screen; type: biochemical; conditions: at 20,000 nM inhibitor; kinase activity remaining
T23 construct: purchased Millipore KinaseProfiler

EphA5 = molecular target: T24, EphA5 (Homo sapiens, UniProt P54756); assay: Kinome profiler screen; type: biochemical; conditions: at 20,000 nM inhibitor; kinase activity remaining
T24 construct: purchased Millipore KinaseProfiler

Mer = molecular target: T25, Mer (Homo sapiens, UniProt Q12866); assay: Kinome profiler screen; type: biochemical; conditions: at 20,000 nM inhibitor; kinase activity remaining
T25 construct: purchased Millipore KinaseProfiler

c-RAF = molecular target: T26, c-RAF (Homo sapiens, UniProt P04049); assay: Kinome profiler screen; type: biochemical; conditions: for activity at 20 µM: at 20,000 nM inhibitor, kinase activity remaining
T26 construct: purchased Millipore

PAK4 = molecular target: T27, PAK4 (Homo sapiens, UniProt O96013); assay: Kinome profiler screen; type: biochemical; conditions: at 20,000 nM inhibitor; kinase activity remaining
T27 construct: purchased Millipore KinaseProfiler

PDGFRα(V561D) = molecular target: T28, PDGFRα(V561D) (Homo sapiens, UniProt P16234, V561D); assay: Kinome profiler screen; type: biochemical
T28 construct: purchased Millipore KinaseProfiler

Aurora-B = molecular target: T29, Aurora-B (Homo sapiens, UniProt Q96GD4); assay: Kinome profiler screen; type: biochemical; conditions: at 20,000 nM inhibitor; kinase activity remaining
T29 construct: purchased Millipore KinaseProfiler

PI3K-C2α = molecular target: T30, PI3K-C2α (Homo sapiens, UniProt O00443); assay: Kinome profiler screen; type: biochemical; conditions: for activity at 20 µM: at 20,000 nM inhibitor, kinase activity remaining
T30 construct: purchased Millipore

Arg(m) = molecular target: T31, Arg(m) (Mus musculus, UniProt Q4JIM5); assay: Kinome profiler screen; type: biochemical; conditions: at 20,000 nM inhibitor; kinase activity remaining
T31 construct: purchased Millipore KinaseProfiler

Chemical stability = type: physicochemical
Description: as §1

ASK1 = molecular target: T32, ASK1 (Homo sapiens, UniProt Q99683); assay: Kinome profiler screen; type: biochemical; conditions: at 20,000 nM inhibitor; kinase activity remaining
T32 construct: purchased Millipore KinaseProfiler

SGK = molecular target: T33, SGK (Homo sapiens, UniProt O00141); assay: Kinome profiler screen; type: biochemical; conditions: at 20,000 nM inhibitor; kinase activity remaining
T33 construct: purchased Millipore KinaseProfiler

[1] = at 20,000 nM inhibitor, kinase activity remaining, read-out: % Activity

T30 sequence (O00443 whole entry): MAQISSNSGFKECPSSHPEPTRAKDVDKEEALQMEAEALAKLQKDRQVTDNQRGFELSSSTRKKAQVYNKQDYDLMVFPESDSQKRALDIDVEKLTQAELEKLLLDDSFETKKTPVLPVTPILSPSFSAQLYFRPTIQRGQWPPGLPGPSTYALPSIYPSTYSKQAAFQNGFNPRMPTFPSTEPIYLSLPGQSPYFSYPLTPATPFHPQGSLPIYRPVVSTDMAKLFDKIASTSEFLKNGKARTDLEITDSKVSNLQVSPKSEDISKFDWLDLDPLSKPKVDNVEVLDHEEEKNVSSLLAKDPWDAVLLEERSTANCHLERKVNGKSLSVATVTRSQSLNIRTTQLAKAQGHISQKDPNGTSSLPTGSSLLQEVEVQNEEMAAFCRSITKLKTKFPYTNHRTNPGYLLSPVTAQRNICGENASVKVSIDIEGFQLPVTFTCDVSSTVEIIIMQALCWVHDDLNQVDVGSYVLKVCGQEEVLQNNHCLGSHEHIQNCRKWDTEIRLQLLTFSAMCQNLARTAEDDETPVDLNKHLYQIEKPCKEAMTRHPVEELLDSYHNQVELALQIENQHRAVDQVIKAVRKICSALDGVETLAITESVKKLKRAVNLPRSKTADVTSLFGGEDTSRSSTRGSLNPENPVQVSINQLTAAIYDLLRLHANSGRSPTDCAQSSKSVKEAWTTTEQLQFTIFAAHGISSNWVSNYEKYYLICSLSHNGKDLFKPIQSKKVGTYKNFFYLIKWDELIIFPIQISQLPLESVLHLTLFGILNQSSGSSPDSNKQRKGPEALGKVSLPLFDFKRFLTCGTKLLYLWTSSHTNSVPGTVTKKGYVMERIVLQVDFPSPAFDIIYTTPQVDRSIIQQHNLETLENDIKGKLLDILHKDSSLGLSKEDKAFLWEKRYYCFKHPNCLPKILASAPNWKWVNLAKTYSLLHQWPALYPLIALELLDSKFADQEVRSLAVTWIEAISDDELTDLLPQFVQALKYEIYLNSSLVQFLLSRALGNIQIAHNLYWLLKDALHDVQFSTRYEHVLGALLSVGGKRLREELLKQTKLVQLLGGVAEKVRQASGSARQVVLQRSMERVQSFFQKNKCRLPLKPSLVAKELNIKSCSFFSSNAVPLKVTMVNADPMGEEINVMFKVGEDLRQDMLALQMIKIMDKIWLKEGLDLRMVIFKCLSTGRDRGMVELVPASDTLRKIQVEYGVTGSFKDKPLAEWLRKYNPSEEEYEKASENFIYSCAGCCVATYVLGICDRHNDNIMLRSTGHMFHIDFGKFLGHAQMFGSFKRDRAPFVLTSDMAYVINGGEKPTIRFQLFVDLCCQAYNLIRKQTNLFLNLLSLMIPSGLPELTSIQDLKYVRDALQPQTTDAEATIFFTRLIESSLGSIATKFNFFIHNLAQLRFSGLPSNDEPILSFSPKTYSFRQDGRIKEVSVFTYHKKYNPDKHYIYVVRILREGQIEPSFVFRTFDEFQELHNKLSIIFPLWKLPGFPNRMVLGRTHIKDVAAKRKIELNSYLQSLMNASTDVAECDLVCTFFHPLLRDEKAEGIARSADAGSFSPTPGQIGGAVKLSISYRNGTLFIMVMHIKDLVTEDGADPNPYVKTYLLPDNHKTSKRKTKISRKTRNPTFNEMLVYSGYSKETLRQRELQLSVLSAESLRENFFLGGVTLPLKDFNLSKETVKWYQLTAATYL
T26 sequence (P04049 whole entry): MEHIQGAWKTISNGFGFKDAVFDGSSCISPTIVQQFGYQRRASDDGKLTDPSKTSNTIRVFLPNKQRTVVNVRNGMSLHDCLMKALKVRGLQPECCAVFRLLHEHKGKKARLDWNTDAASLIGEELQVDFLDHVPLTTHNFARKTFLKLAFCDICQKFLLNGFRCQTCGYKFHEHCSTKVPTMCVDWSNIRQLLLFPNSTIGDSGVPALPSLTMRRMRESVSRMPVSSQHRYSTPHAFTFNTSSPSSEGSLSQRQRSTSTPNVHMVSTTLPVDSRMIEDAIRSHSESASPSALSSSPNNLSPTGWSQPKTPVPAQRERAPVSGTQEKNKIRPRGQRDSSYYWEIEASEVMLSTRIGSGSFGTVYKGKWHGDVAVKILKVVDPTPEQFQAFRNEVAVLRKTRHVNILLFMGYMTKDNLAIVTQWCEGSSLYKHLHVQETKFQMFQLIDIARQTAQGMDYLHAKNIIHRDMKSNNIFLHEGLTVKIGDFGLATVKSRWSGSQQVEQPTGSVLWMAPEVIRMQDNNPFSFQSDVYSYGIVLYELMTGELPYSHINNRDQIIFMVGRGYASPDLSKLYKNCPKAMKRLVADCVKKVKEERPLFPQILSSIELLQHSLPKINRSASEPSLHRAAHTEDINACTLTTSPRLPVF
T11 sequence (P49841 whole entry): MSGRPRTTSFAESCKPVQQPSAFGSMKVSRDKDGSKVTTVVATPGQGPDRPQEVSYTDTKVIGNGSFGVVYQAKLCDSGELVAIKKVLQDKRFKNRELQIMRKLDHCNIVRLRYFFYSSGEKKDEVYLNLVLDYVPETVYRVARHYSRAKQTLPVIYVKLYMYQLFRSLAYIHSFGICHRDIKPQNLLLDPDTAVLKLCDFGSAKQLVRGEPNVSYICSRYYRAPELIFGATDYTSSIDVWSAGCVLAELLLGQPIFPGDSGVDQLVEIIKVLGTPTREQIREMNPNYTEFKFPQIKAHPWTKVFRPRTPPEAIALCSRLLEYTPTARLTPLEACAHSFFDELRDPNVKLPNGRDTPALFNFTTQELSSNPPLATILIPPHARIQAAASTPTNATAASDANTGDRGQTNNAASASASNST
T33 sequence (O00141 whole entry): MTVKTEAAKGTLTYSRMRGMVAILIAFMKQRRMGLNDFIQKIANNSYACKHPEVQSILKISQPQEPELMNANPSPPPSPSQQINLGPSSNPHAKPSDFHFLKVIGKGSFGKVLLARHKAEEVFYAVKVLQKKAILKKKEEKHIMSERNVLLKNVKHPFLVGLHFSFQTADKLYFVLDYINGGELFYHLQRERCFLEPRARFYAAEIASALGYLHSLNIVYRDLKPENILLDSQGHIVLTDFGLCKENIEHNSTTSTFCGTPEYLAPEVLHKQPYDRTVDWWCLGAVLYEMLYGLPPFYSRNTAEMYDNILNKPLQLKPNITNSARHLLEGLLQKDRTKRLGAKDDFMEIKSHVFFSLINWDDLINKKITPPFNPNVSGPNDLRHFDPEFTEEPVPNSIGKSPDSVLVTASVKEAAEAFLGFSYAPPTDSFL
T6 sequence (Q02763 23-1124 R849W): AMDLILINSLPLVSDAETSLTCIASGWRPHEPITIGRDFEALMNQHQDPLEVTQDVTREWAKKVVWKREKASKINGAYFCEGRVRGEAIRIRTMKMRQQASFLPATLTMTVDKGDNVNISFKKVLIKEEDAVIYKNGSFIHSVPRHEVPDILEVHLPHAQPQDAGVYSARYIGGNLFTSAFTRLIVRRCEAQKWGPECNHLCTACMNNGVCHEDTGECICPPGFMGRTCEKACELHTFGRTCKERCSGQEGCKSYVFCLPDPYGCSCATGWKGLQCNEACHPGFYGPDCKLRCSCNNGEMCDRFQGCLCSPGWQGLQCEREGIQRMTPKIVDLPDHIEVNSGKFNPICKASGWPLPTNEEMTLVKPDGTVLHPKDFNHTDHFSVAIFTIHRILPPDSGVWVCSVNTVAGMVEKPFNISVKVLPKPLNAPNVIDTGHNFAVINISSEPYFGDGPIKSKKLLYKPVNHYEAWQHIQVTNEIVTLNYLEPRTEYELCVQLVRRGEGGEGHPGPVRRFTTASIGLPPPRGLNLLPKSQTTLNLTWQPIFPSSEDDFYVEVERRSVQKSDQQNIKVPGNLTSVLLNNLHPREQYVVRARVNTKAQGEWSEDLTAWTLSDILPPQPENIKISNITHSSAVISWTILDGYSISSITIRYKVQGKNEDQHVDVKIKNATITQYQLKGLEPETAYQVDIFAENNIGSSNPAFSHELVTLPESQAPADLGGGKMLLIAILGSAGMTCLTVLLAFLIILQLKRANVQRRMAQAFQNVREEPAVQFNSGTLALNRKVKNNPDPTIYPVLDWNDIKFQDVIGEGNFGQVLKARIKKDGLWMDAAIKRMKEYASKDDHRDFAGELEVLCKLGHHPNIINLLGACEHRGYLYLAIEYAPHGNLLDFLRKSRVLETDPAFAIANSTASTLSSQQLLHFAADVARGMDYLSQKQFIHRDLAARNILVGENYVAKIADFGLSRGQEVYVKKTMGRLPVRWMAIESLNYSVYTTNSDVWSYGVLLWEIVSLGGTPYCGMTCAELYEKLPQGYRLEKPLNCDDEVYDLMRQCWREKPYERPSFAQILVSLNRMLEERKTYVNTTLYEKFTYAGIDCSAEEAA
T23 sequence (Q9Y243 whole entry): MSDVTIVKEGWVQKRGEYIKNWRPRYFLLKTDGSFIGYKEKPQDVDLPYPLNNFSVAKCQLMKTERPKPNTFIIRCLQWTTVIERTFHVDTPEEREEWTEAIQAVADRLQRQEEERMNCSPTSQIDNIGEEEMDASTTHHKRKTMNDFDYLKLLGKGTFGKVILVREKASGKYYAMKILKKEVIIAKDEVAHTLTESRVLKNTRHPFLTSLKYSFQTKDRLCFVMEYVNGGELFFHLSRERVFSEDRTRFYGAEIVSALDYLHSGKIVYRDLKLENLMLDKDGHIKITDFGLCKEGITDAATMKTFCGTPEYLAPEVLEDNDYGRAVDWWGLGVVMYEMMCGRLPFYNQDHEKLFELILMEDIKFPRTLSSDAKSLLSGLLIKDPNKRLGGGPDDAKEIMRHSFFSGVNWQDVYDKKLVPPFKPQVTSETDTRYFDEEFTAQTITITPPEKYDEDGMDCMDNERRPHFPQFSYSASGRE
T4 sequence (Q02763 23-1124): as the sequence (Q02763 23-1124 R849W) above, with W827R counted along it

## CN(C)c1cc(-c2ccncc2)c(-c2ccc3ccccc3c2)nn1 [MW108, N, N-dimethyl-6-(naphthalen-2-yl)-5-(pyridin-4-yl)pyridazin-3-amine]
PRK2
  activity at 20 µM: 103%
PDGFRα(D842V)
  activity at 20 µM: 89%
cKit(V654A)
  activity at 20 µM: 106%
Tie2
  activity at 20 µM: 81%
PI3 Kinase (p120γ)
  activity at 20 µM: 101%
Tie2(R849W)
  activity at 20 µM: 77%
MLK1
  activity at 20 µM: 98%
PI3 Kinase (p110β/p85α)
  activity at 20 µM: 100%
Abl (Q252H)
  activity at 20 µM: 105%
CHK2(I157T)
  activity at 20 µM: 101%
Aqueous solubility; Aqueous Solubility (37 °C)
  solubility at 24 h: 0.058 mM (≈ 0.0189 mg/mL)
Aqueous solubility; Aqueous Solubility (37 °C), HCl hydrate
  solubility at 24 h: 370 mM (≈ 121 mg/mL)
Aqueous solubility; 24 h
  Aqueous Solubility (37ºC), HCl hydrate: ~400 mM
GSK3β
  activity at 20 µM: 97%
PKCζ
  activity at 20 µM: 103%
PASK
  activity at 20 µM: 88%
Lyn
  activity at 20 µM: 100%
Src(T341M)
  activity at 20 µM: 92%
ACK1
  activity at 20 µM: 100%
MAPK2(m)
  activity at 20 µM: 109%
CDK1/cyclinB
  activity at 20 µM: 90%
BrSK1
  activity at 20 µM: 94%
IRAK4
  activity at 20 µM: 91%
CDK6/cyclinD3
  activity at 20 µM: 85%
DRAK1
  activity at 20 µM: 86%
Exploratory behavior
  exploratory behavior, open field: No differences in exploratory behavior
PKBγ
  activity at 20 µM: 92%
EphA5
  activity at 20 µM: 100%
Mer
  activity at 20 µM: 98%
c-RAF
  IC50: 9.12 µM
  activity at 20 µM: 27%
PAK4
  activity at 20 µM: 104%
PDGFRα(V561D)
  activity at 20 µM: 114%
Aurora-B
  activity at 20 µM: 134%
PI3K-C2α
  IC50: > 30 µM
  activity at 20 µM: 29%
Arg(m)
  activity at 20 µM: 86%
Chemical stability; 24 h, 0.0015 M
  Chemical Stability (37ºC; 24 hrs): stable in neutral, base (pH 13), acid (pH 2)
ASK1
  activity at 20 µM: 103%
SGK
  activity at 20 µM: 88%

## CN(C)c1cc(-c2ccncc2)c(-c2cccc3ccccc23)nn1 [MW181, N,N-dimethyl-6-(naphthalen-1-yl)-5-(pyridin-4-yl)pyridazin-3-amine]
PRK2
  activity at 20 µM: 96%
PDGFRα(D842V)
  activity at 20 µM: 104%
cKit(V654A)
  activity at 20 µM: 83%
Tie2
  activity at 20 µM: 99%
PI3 Kinase (p120γ)
  activity at 20 µM: 100%
Tie2(R849W)
  activity at 20 µM: 99%
MLK1
  activity at 20 µM: 95%
PI3 Kinase (p110β/p85α)
  activity at 20 µM: 98%
Abl (Q252H)
  activity at 20 µM: 100%
CHK2(I157T)
  activity at 20 µM: 100%
Aqueous solubility; hydrochloride hydrate form, 24 h
  Aqueous Solubility (37ºC), HCl hydrate: ~800 mM
Aqueous solubility; compound (not the salt), 24 h, read-out: Aqueous Solubility (37ºC)
  solubility at 24 h: 0.205 mM
Aqueous solubility; hydrochloride hydrate form, 24 h, read-out: Aqueous Solubility (37ºC), HCl hydrate
  solubility at 24 h: 840 mM (≈ 274 mg/mL)
GSK3β
  activity at 20 µM: 92%
PKCζ
  activity at 20 µM: 98%
PASK
  activity at 20 µM: 97%
Lyn
  activity at 20 µM: 93%
Src(T341M)
  activity at 20 µM: 102%
ACK1
  activity at 20 µM: 106%
MAPK2(m)
  activity at 20 µM: 106%
CDK1/cyclinB
  activity at 20 µM: 113%
BrSK1; [1]
  activity at 20 µM: 94%
IRAK4
  activity at 20 µM: 100%
CDK6/cyclinD3
  activity at 20 µM: 103%
DRAK1
  activity at 20 µM: 113%
Exploratory behavior
  exploratory behavior, open field: No differences in exploratory behavior
PKBγ
  activity at 20 µM: 100%
EphA5
  activity at 20 µM: 101%
Mer
  activity at 20 µM: 100%
c-RAF
  activity at 20 µM: 70%
PAK4
  activity at 20 µM: 109%
PDGFRα(V561D); [1]
  activity at 20 µM: 103%
Aurora-B
  activity at 20 µM: 114%
PI3K-C2α
  activity at 20 µM: 99%
Arg(m)
  activity at 20 µM: 96%
Chemical stability; neutral, base (pH 13), acid (pH 2)
  Chemical Stability (37ºC; 24 hrs): stable in neutral, base (pH 13), acid (pH 2)
ASK1
  activity at 20 µM: 109%
SGK
  activity at 20 µM: 88%
